The target in test [1] is T1, Baculoviral IAP repeat-containing protein 2/Cyclin-dependent kinase 4 (Homo sapiens, UniProt P11802+Q13490). Description: Protac activity at CDK4/BIRC2 in human Jurkat cells assessed as induction of CDK4 degradation measured after 24 hrs by capillary electrophoresis. It counts as cell-based.
Target sequence in this assay (P11802 whole entry): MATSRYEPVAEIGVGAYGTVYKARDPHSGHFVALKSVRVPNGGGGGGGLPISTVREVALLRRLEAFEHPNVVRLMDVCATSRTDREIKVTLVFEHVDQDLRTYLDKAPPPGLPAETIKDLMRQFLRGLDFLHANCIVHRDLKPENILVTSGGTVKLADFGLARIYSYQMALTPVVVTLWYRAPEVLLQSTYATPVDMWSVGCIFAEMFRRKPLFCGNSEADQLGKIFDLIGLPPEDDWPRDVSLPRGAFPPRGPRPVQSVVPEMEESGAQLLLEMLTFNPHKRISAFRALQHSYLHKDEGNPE
Target sequence in this assay (Q13490 whole entry): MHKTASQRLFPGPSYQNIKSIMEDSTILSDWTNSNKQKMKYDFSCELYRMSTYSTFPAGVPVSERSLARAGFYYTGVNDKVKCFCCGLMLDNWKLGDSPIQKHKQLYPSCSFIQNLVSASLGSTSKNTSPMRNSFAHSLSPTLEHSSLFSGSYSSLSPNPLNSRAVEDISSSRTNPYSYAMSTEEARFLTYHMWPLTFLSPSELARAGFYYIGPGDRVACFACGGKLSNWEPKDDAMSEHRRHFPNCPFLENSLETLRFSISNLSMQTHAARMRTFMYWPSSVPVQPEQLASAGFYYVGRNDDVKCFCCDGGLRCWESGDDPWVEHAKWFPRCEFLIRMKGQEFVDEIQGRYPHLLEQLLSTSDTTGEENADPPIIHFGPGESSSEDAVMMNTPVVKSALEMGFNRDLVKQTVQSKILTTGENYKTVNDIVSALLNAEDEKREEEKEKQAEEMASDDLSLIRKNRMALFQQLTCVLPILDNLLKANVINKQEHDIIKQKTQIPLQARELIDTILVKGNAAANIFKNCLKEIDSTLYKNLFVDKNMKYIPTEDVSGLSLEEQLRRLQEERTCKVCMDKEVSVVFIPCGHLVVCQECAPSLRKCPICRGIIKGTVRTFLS
In test [2] the target is Cyclin-dependent kinase 4/cyclin D1 (Homo sapiens, UniProt P11802). Description: Inhibition of human CDK4/cyclin-D1 using RB protein as substrate by [gamma-33P]-ATP assay. It counts as protein-complex assay.
Test [3] deals with Baculoviral IAP repeat-containing protein 2/Cyclin-dependent kinase 6 (Homo sapiens, UniProt Q00534+Q13490). Nature of the test: Protac activity at CDK6/BIRC2 in human Jurkat cells assessed as induction of CDK6 degradation measured after 24 hrs by capillary electrophoresis. It counts as cell-based.
Test [4] has as its target CDK6/cyclin D3 (Homo sapiens, UniProt Q00534). Nature of the test: Inhibition of human CDK6/cyclin-D3 using RB protein as substrate by [gamma-33P]-ATP assay. Type of test: protein-complex assay.
Test [5] has as its system Baculoviral IAP repeat-containing protein 2/Cyclin-dependent kinase 6 (Homo sapiens). Nature of the test: Protac activity at CDK6/BIRC2 in human epoxomicin pretreated Jurkat cells assessed as decrease in CDK6 protein level measured after 5 hrs.
Test [6] deals with T1, Baculoviral IAP repeat-containing protein 2/Cyclin-dependent kinase 4. Nature of the test: Protac activity at CDK4/BIRC2 in human epoxomicin pretreated Jurkat cells assessed as decrease in CDK4 protein level measured after 5 hrs. Type of test: cell-based.
Target sequence in this assay (P11802 2-303 limits assumed): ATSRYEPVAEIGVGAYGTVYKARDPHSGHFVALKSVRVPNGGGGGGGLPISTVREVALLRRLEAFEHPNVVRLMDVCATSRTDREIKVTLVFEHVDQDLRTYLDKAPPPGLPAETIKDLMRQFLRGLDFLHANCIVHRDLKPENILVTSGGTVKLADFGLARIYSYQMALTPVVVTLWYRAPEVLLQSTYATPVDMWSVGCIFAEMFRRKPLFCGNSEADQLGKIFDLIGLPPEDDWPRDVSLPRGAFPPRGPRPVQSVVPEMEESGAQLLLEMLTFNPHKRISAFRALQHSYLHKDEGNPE
Target sequence in this assay (Q13490 whole entry partner): as the sequence (Q13490 whole entry) above
Test [7] concerns the target Protein cereblon/Cyclin-dependent kinase 6 (Homo sapiens, UniProt Q00534+Q96SW2). Description: Protac activity at CRBN/CDK6 in human Jurkat cells assessed as induction of CDK6 degradation measured after 24 hrs by capillary electrophoresis. Type of test: cell-based.
For test [8], the target named is Protein cereblon/Cyclin-dependent kinase 4 (Homo sapiens, UniProt P11802+Q96SW2). Nature of the test: Protac activity at CRBN/CDK4 in human Jurkat cells assessed as induction of CDK4 degradation measured after 24 hrs by capillary electrophoresis. It counts as cell-based.
For test [9], the target named is T2, von Hippel-Lindau disease tumor suppressor/Cyclin-dependent kinase 4 (Homo sapiens, UniProt P11802+P40337). Nature of the test: Protac activity at CDK4/VHL in human Jurkat cells assessed as induction of CDK4 degradation measured after 24 hrs by capillary electrophoresis. Type of test: cell-based.
Target sequence in this assay (P11802 whole entry): as the sequence (P11802 whole entry) above
Target sequence in this assay (P40337 whole entry): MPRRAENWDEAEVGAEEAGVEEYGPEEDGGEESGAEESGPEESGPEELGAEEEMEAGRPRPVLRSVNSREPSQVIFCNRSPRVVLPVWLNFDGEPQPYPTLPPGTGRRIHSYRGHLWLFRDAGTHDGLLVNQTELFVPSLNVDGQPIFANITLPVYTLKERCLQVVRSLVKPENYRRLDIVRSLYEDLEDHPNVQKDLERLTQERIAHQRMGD
Test [10] has as its system von Hippel-Lindau disease tumor suppressor/Cyclin-dependent kinase 4 (Homo sapiens). Nature of the test: Protac activity at CDK4/VHL in human epoxomicin pretreated Jurkat cells assessed as decrease in CDK4 protein level measured after 5 hrs.
Test [11] has as its target von Hippel-Lindau disease tumor suppressor/Cyclin-dependent kinase 6 (Homo sapiens, UniProt Q00534+P40337). Nature of the test: Protac activity at CDK6/VHL in human Jurkat cells assessed as induction of CDK6 degradation measured after 24 hrs by capillary electrophoresis. It counts as cell-based.
Test [12] concerns the target T2, von Hippel-Lindau disease tumor suppressor/Cyclin-dependent kinase 4. Nature of the test: Protac activity at CDK4/VHL in human epoxomicin pretreated Jurkat cells assessed as decrease in CDK4 protein level measured after 5 hrs. Type of test: cell-based.
Target sequence in this assay (P11802 2-303 limits assumed): as the sequence (P11802 2-303 limits assumed) above
Target sequence in this assay (P40337 whole entry partner): as the sequence (P40337 whole entry) above

Activity calls are given as the source filed them. The calls are words filed in the database; no cut-off is given here.

Sequence of Baculoviral IAP repeat-containing protein 2/Cyclin-dependent kinase 6 (Q00534 whole entry): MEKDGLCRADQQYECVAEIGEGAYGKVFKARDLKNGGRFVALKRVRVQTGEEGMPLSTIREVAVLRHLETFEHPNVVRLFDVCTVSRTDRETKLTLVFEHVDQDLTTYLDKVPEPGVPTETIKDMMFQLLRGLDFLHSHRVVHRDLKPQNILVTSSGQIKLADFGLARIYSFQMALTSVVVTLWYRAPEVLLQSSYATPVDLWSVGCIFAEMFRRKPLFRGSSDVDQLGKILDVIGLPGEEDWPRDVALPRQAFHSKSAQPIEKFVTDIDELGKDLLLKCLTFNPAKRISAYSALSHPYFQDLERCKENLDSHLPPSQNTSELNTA
Sequence of Baculoviral IAP repeat-containing protein 2/Cyclin-dependent kinase 6 (Q13490 whole entry): as the sequence (Q13490 whole entry) above
Sequence of CDK6/cyclin D3 (P30281 whole entry): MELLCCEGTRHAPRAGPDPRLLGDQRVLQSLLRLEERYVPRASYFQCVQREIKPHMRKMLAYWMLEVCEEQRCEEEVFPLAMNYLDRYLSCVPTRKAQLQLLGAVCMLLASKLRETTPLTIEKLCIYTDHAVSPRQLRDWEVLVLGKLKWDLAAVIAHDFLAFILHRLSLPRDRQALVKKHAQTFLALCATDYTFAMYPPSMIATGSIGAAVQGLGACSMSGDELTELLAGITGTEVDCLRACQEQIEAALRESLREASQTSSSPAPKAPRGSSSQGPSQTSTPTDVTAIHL
Sequence of CDK6/cyclin D3 (Q00534 whole entry): as the sequence (Q00534 whole entry) above
Sequence of Cyclin-dependent kinase 4/cyclin D1 (P11802 whole entry): as the sequence (P11802 whole entry) above
Sequence of Cyclin-dependent kinase 4/cyclin D1 (P24385 whole entry, further chain): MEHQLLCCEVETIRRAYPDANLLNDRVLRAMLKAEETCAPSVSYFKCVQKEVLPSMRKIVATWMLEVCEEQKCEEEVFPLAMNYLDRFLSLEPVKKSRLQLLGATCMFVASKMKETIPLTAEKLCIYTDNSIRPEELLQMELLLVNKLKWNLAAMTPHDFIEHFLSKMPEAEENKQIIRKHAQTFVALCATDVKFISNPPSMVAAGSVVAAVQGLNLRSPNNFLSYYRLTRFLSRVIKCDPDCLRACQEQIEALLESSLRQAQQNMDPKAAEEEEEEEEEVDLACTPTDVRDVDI
Sequence of von Hippel-Lindau disease tumor suppressor/Cyclin-dependent kinase 6 (Q00534 whole entry): as the sequence (Q00534 whole entry) above
Sequence of von Hippel-Lindau disease tumor suppressor/Cyclin-dependent kinase 6 (P40337 whole entry): as the sequence (P40337 whole entry) above
Sequence of Protein cereblon/Cyclin-dependent kinase 6 (Q00534 whole entry): as the sequence (Q00534 whole entry) above
Sequence of Protein cereblon/Cyclin-dependent kinase 6 (Q96SW2 whole entry): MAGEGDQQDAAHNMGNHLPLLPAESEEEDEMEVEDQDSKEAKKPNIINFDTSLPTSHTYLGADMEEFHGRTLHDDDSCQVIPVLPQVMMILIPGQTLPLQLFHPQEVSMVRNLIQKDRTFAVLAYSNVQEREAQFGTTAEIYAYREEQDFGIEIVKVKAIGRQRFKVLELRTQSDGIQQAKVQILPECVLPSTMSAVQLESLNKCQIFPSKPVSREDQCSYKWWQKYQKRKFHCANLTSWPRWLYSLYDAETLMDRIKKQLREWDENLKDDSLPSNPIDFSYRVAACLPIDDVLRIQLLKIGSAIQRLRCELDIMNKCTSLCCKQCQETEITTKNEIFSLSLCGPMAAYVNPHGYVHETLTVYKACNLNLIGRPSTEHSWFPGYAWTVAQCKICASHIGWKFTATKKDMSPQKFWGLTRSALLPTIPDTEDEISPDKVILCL
Sequence of Protein cereblon/Cyclin-dependent kinase 4 (P11802 whole entry): as the sequence (P11802 whole entry) above
Sequence of Protein cereblon/Cyclin-dependent kinase 4 (Q96SW2 whole entry): as the sequence (Q96SW2 whole entry) above

As to `CN[C@@H](C)C(=O)N[C@H](C(=O)N1C[C@@H](NC(=O)CCOCCOCCOCCNC(=O)CN2CCN(c3ccc(Nc4ncc5c(C)c(C(C)=O)c(=O)n(C6CCCC6)c5n4)nc3)CC2)C[C@H]1C(=O)Nc1c(F)cccc1F)C(C)(C)C`, the pDC50 in [1] is reported as 5.3; in test [3], 5.8. Further, the IC50 is 0.0158 µM in test [2] and 0.0398 µM in test [4] (read-out: pIC50 (converted)).

Take `CN[C@@H](C)C(=O)N[C@H](C(=O)N1C[C@@H](NC(=O)COCCOCCOCCN2CCN(c3ccc(Nc4ncc5c(C)c(C(C)=O)c(=O)n(C6CCCC6)c5n4)nc3)CC2)C[C@H]1C(=O)Nc1c(F)cccc1F)C(C)(C)C`: the pDC50 in test [1] is recorded as 7.1; in test [3], 7.8. In addition, the IC50 was 0.00631 µM in [2] and 0.0158 µM in test [4] (read-out: pIC50 (converted)).

Take `CN[C@@H](C)C(=O)N[C@H](C(=O)N1C[C@@H](NC(=O)CCCCCCCN2CCN(c3ccc(Nc4ncc5c(C)c(C(C)=O)c(=O)n(C6CCCC6)c5n4)nc3)CC2)C[C@H]1C(=O)Nc1c(F)cccc1F)C(C)(C)C`: the pDC50 in test [1] was 7.7; in test [3], 8.3. Moreover, the results for the IC50 in test [2] and in [4] (read-out: pIC50 (converted)) were 0.00501 µM and 0.0126 µM, respectively. Also, the outcome in test [5] and in test [6] was inactive.

Consider `CC(=O)c1c(C)c2cnc(Nc3ccc(N4CCN(CCOCCOCCNC(=O)CNc5cccc6c5C(=O)N(C5CCC(=O)NC5=O)C6=O)CC4)cn3)nc2n(C2CCCC2)c1=O` (stereo unspecified), for which the results for the IC50 in [2] and in test [4] (read-out: pIC50 (converted)) were 0.00631 µM and 0.0158 µM, respectively. In addition, the pDC50 in test [7] is reported as 8.3; in test [8], 7.3.

On to `CC(=O)c1c(C)c2cnc(Nc3ccc(N4CCN(CCCCCCCC(=O)N[C@H](C(=O)N5C[C@H](O)C[C@H]5C(=O)N[C@@H](C)c5ccc(-c6scnc6C)cc5)C(C)(C)C)CC4)cn3)nc2n(C2CCCC2)c1=O`, for which the IC50 is 0.0316 µM in [2] and 0.2 µM in test [4] (read-out: IC50). The pDC50 in test [9] is 7.6; in [11], 8.4. Further, the outcome in test [10] and in test [12] was inactive. In addition, the DC50 in [11] was found to be 0.004 µM.

Take `CC(=O)c1c(C)c2cnc(Nc3ccc(N4CCN(CCCCNC(=O)CNc5cccc6c5C(=O)N(C5CCC(=O)NC5=O)C6=O)CC4)cn3)nc2n(C2CCCC2)c1=O` (stereo unspecified): in [2], the IC50 was 0.00316 µM.

The values above are taken from ChEMBL document CHEMBL4627338, “Selective CDK6 degradation mediated by cereblon, VHL, and novel IAP-recruiting PROTACs” (Bioorg Med Chem Lett, 2020).
